Test results reported in ChEMBL document CHEMBL5321222, “N(14)-substituted evodiamine derivatives as dual topoisomerase 1/tubulin-Inhibiting anti-gastrointestinal tumor agents” (Eur J Med Chem, 2023).
Calls of active or inactive are those of the source. No cut-off for these calls is given here.

Key:
[1] = system: MGC-803; experiment: Induction of apoptosis in human MGC-803 cells assessed as early apoptotic cells at 0.1 uM incubated for 24 hrs by propidium iodide and Annexin V/FITC staining based flow cytometry assay (reference value: 1.85%); format: functional
[2] = target: Tubulin (Homo sapiens) (UniProt P68371+Q9H4B7+P0DPH7+P68366+Q13509+Q71U36+P04350+Q3ZCM7+P07437+P68363+Q9BQE3+Q6PEY2+Q13885+Q9BVA1+Q9BUF5); experiment: (§1) Inhibition of tubulin polymerization (unknown origin) measured every minute; format: protein-complex assay
[3] = target: Tubulin; experiment: as §1; format: protein-complex assay, Homo sapiens
[4] = system: MGC-803; experiment: Induction of apoptosis in human MGC-803 cells assessed as late apoptotic cells at 0.1 uM incubated for 24 hrs by propidium iodide and Annexin V/FITC staining based flow cytometry assay (reference value: 4.10%); format: functional
[5] = system: RKO; experiment: Induction of apoptosis in human RKO cells assessed as late apoptotic cells at 0.1 uM incubated for 24 hrs by propidium iodide and Annexin V/FITC staining based flow cytometry assay (reference value: 0.50%); format: functional
[6] = system: MGC-803; experiment: Antiproliferative activity against human MGC-803 cells assessed as reduction in cell viability incubated for 72 hrs by MTT assay; format: functional, cell-based; details: MGC-803, 72 h
[7] = system: MGC-803; experiment: Induction of cell cycle arrest in human MGC-803 cells assessed as accumulation of cells at G2/M phase at 0.05 to 0.2 uM incubated for 24 hrs by propidium iodide staining based flow cytometry analysis; format: functional; details: dose 0.05-0.2 µM
[8] = system: GES1; experiment: Antiproliferative activity against human GES1 cells assessed as reduction in cell viability incubated for 72 hrs by MTT assay; format: functional, cell-based; details: GES1, 72 h
[9] = Induction of cell cycle arrest in human RKO cells assessed as accumulation of cells at G2/M phase at 0.05 uM incubated for 24 hrs by propidium iodide staining based flow cytometry analysis; format: functional
[10] = system: HGC-27; experiment: Antiproliferative activity against human HGC-27 cells assessed as reduction in cell viability incubated for 72 hrs by MTT assay; format: functional, cell-based; details: HGC-27, 72 h
[11] = system: MGC-803; experiment: Induction of apoptosis in human MGC-803 cells assessed as late apoptotic cells at 0.05 uM incubated for 24 hrs by propidium iodide and Annexin V/FITC staining based flow cytometry assay (reference value: 4.10%); format: functional
[12] = system: RKO; experiment: Induction of apoptosis in human RKO cells assessed as late apoptotic cells at 0.2 uM incubated for 24 hrs by propidium iodide and Annexin V/FITC staining based flow cytometry assay (reference value: 0.50%); format: functional
[13] = system: MGC-803; experiment: Induction of apoptosis in human MGC-803 cells assessed as early apoptotic cells at 0.05 uM incubated for 24 hrs by propidium iodide and Annexin V/FITC staining based flow cytometry assay (reference value: 1.85%); format: functional
[14] = system: MGC-803; experiment: Induction of apoptosis in human MGC-803 cells assessed as late apoptotic cells at 0.2 uM incubated for 24 hrs by propidium iodide and Annexin V/FITC staining based flow cytometry assay (reference value: 4.10%); format: functional
[15] = system: SW480; experiment: Antiproliferative activity against human SW480 cells assessed as reduction in cell viability incubated for 72 hrs by MTT assay; format: functional, cell-based; details: SW480, 72 h
[16] = system: MGC-803; experiment: Induction of morphological changes in human MGC-803 cells assessed as formation of apoptotic bodies at 0.05 to 0.2 uM incubated for 24 hrs by Giemsa staining based micrscopic analysis; format: functional, cell-based; details: dose 0.05-0.2 µM
[17] = system: RKO; experiment: Induction of apoptosis in human RKO cells assessed as early apoptotic cells at 0.05 uM incubated for 24 hrs by propidium iodide and Annexin V/FITC staining based flow cytometry assay (reference value: 0.16%); format: functional
[18] = target: T1, DNA topoisomerase 1 (Homo sapiens) (UniProt P11387); experiment: Inhibition of topoisomerase 1 (unknown origin) at 200 uM using PBR322 DNA as substrate incubated for 30 mins by agarose gel electrophoresis
T1 sequence (whole entry): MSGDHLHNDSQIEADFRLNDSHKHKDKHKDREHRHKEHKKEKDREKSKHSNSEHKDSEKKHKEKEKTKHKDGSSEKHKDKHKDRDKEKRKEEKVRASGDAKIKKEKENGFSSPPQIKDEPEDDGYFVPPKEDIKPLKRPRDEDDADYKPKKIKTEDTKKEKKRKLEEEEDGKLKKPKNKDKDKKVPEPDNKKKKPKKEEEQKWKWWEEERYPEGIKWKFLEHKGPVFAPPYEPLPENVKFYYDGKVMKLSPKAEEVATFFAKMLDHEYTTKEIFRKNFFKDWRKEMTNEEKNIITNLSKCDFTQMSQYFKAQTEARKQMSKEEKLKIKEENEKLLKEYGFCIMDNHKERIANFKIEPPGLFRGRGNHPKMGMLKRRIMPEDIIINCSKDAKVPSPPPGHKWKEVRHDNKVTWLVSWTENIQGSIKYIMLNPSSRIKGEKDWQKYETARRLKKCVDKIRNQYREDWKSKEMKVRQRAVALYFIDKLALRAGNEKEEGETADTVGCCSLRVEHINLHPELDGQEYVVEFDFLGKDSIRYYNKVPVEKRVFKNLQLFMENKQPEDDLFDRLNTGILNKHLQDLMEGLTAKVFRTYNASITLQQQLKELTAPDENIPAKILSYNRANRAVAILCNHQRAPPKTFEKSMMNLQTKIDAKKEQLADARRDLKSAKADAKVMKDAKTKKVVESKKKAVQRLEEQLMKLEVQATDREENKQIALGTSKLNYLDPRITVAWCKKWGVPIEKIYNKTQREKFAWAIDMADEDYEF

[19] = system: LoVo; experiment: Antiproliferative activity against human LoVo cells assessed as reduction in cell viability incubated for 72 hrs by MTT assay; format: functional, cell-based
[20] = system: RKO; experiment: Inhibition of colony formation in human RKO cells incubated for 7 days by crystal violet staining based assay; format: functional, cell-based; details: dose 10-90 nM, time 7.0 day
[21] = system: MGC-803; experiment: Induction of morphological changes in human MGC-803 cells assessed as cell deformation at 0.05 to 0.2 uM incubated for 24 hrs by Giemsa staining based micrscopic analysis; format: functional; details: dose 0.05-0.2 µM
[22] = system: MGC-803; experiment: Induction of apoptosis in human MGC-803 cells assessed as early apoptotic cells at 0.2 uM incubated for 24 hrs by propidium iodide and Annexin V/FITC staining based flow cytometry assay (reference value: 1.85%); format: functional
[23] = system: RKO; experiment: Antiproliferative activity against human RKO cells assessed as reduction in cell viability incubated for 72 hrs by MTT assay; format: functional, cell-based
[24] = system: RKO; experiment: Induction of morphological changes in human RKO cells assessed as cell deformation at 0.05 to 0.2 uM incubated for 24 hrs by Giemsa staining based micrscopic analysis; format: functional; details: dose 0.05-0.2 µM
[25] = system: RKO; experiment: Induction of morphological changes in human RKO cells assessed as formation of apoptotic bodies at 0.05 to 0.2 uM incubated for 24 hrs by Giemsa staining based micrscopic analysis; format: functional, cell-based; details: dose 0.05-0.2 µM
[26] = system: MGC-803; experiment: Inhibition of cell […] in human MGC-803 cells incubated for 24 hrs by scratch wound healing assay; format: functional, cell-based; details: dose 12.5-50 nM
[27] = system: RKO; experiment: Induction of morphological changes in human RKO cells assessed as cell shrinkage at 0.05 to 0.2 uM incubated for 24 hrs by Giemsa staining based micrscopic analysis; format: functional; details: dose 0.05-0.2 µM
[28] = system: MGC-803; experiment: Inhibition of colony formation in human MGC-803 cells incubated for 7 days by crystal violet staining based assay; format: functional, cell-based; details: dose 10-90 nM, time 7.0 day

Q: For `CCCN1c2ccccc2C(=O)N2CCc3c([nH]c4ccccc34)C21` (stereo not drawn), which Activity [1] is on record?
A: Its Activity is 6.76%.

Q: And the inhibition [2]?
A: The inhibition was “Dose-Dependent Effect”.

Q: What about the IC50 [3] of the same compound?
A: Its IC50 is 5.69 µM.

Q: What about the Activity [4] of the same compound?
A: Its Activity is 24.63%.

Q: And the Activity [5]?
A: Its Activity is 33.41%.

Q: And the IC50 [6]?
A: The IC50 was 0.09 µM.

Q: And the Activity [7]?
A: Its Activity is “Active”.

Q: What about the IC50 [8] of the same compound?
A: The IC50 was 0.13 µM.

Q: And the Activity [9]?
A: Its Activity is 40.55%.

Q: And the IC50 [10]?
A: Its IC50 is 0.81 µM.

Q: And the Activity [11]?
A: Its Activity is 6.84%.

Q: And the Activity [12]?
A: The Activity was 37.67%.

Q: And the Activity [13]?
A: Its Activity is 3.03%.

Q: And the Activity [14]?
A: The Activity was 25.1%.

Q: What about the IC50 [15] of the same compound?
A: The IC50 was 0.71 µM.

Q: What about the Activity [16] of the same compound?
A: Its Activity is “Active”.

Q: What about the Activity [17] of the same compound?
A: The Activity was 9.67%.

Q: And the inhibition [18]?
A: Its inhibition is “Active”.

Q: And the IC50 [19]?
A: Its IC50 is 0.23 µM.

Q: And the inhibition [20]?
A: The inhibition was “Dose-Dependent Effect”.

Q: And the Activity [21]?
A: The Activity was “Active”.

Q: And the Activity [22]?
A: The Activity was 12.28%.

Q: What about the IC50 [23] of the same compound?
A: The IC50 was 0.2 µM.

Q: And the Activity [24]?
A: The Activity was “Active”.

Q: What about the Activity [25] of the same compound?
A: Its Activity is “Active”.

Q: And the inhibition [26]?
A: Its inhibition is “Dose-Dependent Effect”.

Q: And the Activity [27]?
A: Its Activity is “Active”.

Q: What about the inhibition [28] of the same compound?
A: The inhibition was “Dose-Dependent Effect”.
